We go through seven compounds from BindingDB's records for patent US12065430 (Taiho Pharmaceutical, 2024).

The IC50 is the concentration needed to halve the response being measured.

The experiment concerns the target T1, Son of sevenless homolog 1 [564-1049]/GTPase KRas [G12C] (UniProt P01116+Q07889, G12C).
T1 construct: 564-1049
In words: Evaluation of Inhibitory Activity of Compounds on KRAS G12C Nucleotide (GDP-GTP) Exchange Reaction. Here is the method: The inhibitory activity of compounds on exchange reaction of GDP into GppNHp in Bodipy (trademark) FL-bound KRAS G12C was examined by fluorescence measurement using human recombinant KRAS G12C and SOS1 proteins.For the preparation of KRAS G12C to which Bodipy FL GDP was bound, first, […] KRAS G12C (amino acid region: 1-169) and 1 mM Bodipy FL GDP (Invitrogen, G22360) were incubated for 1 hour in a buffer (20 mM Tris-HCl (pH 7.5), 50 mM NaCl, 1 mM DTT) in ice in the presence of 2.5 mM EDTA. Thereafter, MgCl2 with a final concentration of 10 mM was added, and the mixture was incubated at room temperature for 30 minutes. The protein was allowed to pass through a NAP-5 column to remove free nucleotides and was used for compound evaluation.For the measurement of the inhibitory activity of compounds on nucleotide exchange reaction, first, the compound of the present invention was diluted stepwise with dimethyl sulfoxide (DMSO). Subsequently, a solution of the gradually diluted compound of the present invention in DMSO (the final concentration of DMSO: 5%) and KRAS G12C (25 nM) bound to Bodipy FL GDP were added to a reaction buffer (20 mM Tris-HCl (pH 7.5), 100 mM NaCl, 1 mM MgCl2, 2 mM DTT, 0.1% Tween20), followed by preincubation at 25° C. for 4 hours. Thereafter, Son of Sevenless Homolog 1 (SOS1, amino acid region: 564-1049) and GppNHp (GMPPNP, Jena Bioscience GmbH, NU-401-50) were added such that their final concentration was 100 nM and 1 μM respectively, followed by reaction for 30 minutes. The change in fluorescence intensity of Bodipy FL (excitation wavelength: 485 nm, fluorescence wavelength: 520 nm) immediately after the start of reaction and after 30 minutes from the start of reaction was standardized. The signal value for only DMSO was determined to be 0% inhibition, and the signal value for no addition of GppNHp was determined to be 100% inhibition. The compound concentration at which 50% inhibition is achieved was determined to be IC50 (nM), and was calculated.

T1 sequence (P01116 whole entry G12C): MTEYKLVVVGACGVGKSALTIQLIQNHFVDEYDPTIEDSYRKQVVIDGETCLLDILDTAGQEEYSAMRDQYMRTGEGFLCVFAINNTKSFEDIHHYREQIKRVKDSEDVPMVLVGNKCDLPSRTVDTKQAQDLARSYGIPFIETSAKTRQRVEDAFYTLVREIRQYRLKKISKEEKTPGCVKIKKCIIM
T1 sequence (Q07889 564-1049): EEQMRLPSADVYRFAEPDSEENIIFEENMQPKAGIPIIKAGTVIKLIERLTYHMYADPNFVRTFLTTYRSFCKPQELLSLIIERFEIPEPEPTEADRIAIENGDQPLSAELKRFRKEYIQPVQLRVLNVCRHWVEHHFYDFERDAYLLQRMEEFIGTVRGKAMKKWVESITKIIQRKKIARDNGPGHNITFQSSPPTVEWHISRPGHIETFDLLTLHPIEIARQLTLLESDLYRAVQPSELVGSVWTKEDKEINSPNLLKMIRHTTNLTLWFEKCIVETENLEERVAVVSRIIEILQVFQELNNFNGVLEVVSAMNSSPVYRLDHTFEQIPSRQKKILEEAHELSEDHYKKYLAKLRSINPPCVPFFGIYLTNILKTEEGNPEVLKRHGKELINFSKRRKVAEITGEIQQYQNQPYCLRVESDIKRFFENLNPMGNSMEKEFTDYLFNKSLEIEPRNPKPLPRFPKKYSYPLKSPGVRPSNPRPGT

For the compound `C=CC(=O)N1CC(NC(=O)c2c(Cl)nc(CNc3n[nH]c4cc(Cl)c(C(C)(C)C)cc34)n2[C@@H]2CCN(C3CC3)C2)C1` [US12065430, Example 120], the half-maximal inhibitory concentration (IC50) amounted to 6 nM.

In the case of `C=CC(=O)N1CC(NC(=O)c2c(Cl)nc(CNc3n[nH]c4cc(Cl)c(C(C)(C)C)cc34)n2[C@@H]2CCN(C3COC3)C2)C1` [US12065430, Example 121], the IC50 was found to be 5 nM.

`C=CC(=O)N1CC(NC(=O)c2c(Cl)nc(CNc3n[nH]c4cc(Cl)c(C(C)(C)C)cc34)n2[C@@H]2CCN(Cc3ccccc3)C2)C1` [US12065430, Example 122] yielded an IC50 of 6 nM. For `C=CCN1CC[C@@H](n2c(CNc3n[nH]c4cc(Cl)c(C(C)(C)C)cc34)nc(Cl)c2C(=O)NC2CN(C(=O)C=C)C2)C1` [US12065430, Example 123], the IC50 is 9 nM.

In turn, `C=CC(=O)N1CC(NC(=O)c2c(Cl)nc(CNc3n[nH]c4cc(Cl)c(C(C)(C)C)cc34)n2[C@@H]2CCN(c3ccccn3)C2)C1` [US12065430, Example 124] had an IC50 of 6 nM. To `C=CC(=O)N1CC(NC(=O)c2c(Cl)nc(CNc3n[nH]c4cc(Cl)c(C(C)(C)C)cc34)n2[C@@H]2CCN(CC(F)F)[C@H]2C)C1` [US12065430, Example 125] belongs 13 nM; to `C=CC(=O)N1CC(NC(=O)c2c(Cl)nc(CNc3n[nH]c4cc(Cl)c(C(C)(C)C)cc34)n2[C@@H]2C[C@@H](C)N(CC(F)F)C2)C1` [US12065430, Example 126], 4 nM.
